Assay results as given in patent publication EP0475231A1, “Benzodiazepines” (priority 1990, dated 1992).
Read-outs that look alike come from different tables or passages of the source.

Experiments:
HIV-1 NIT strain = experiment: anti-HIV activity test: reduction of immuno-fluorescent positive (viral antigen) cells in infected CD4+ CEM cells; type: cell-based; conditions: Human immunodeficiency virus 1, CCRF-CEM, 96 h, concentration which reduces the number of immuno-fluorescent positive cells by 50%, MOI 1, four days after infection, read-out: IC₅₀
Protocol: The compounds I were tested for the inhibition of HIV-cytopathic effect and the reduction of cell-associated viral antigens in an experiment run as follows:
High titer virus stocks (HIV-1 NIT strain) were grown in CD₄+ CR10 cells in RMPI-1640 media (Gibco Laboratories) supplemented with 10% fetal calf serum and 0.1 mg/ml Gentamicin. The collected media were filtered and the virus isolates were concentrated 100 fold and stored at -80°C. CD₄+ CEM cells, propagated in the same medium, were incubated for 60 minutes at 37°C with diluted stock virus at multiplicity of infection (MOI) equal to 1. Cells were washed with phosphate buffered saline and resuspended in the medium at 2 x 10⁵ cells/ml. Various quantities of the test compounds in DMSO were added. Four days after infection, the number of live cells were counted by trypan blue exclusion (Proc. Natl. Acad. Sci. 83, 1986, 1911). At the same time, aliquots of cells were fixed with acetone and stained with antibodies from AIDS patients, followed by a second staining with fluorescein-conjugated goat anti-human IgG (Cappel). Cells stained with the fluorescent antibody were counted using a fluorescence microscope and the results were expressed as percentage of the total number of cells counted (J. Med. Virol. 19, 1986, 325).
The results of this anti-HIV activity test, expressed in IC₅₀ (µM), i.e. the concentration of the test compound which reduces the number of immuno-fluorescent positive cells by 50%, are given in Table I below.

HIV-TAT = experiment: anti-HIV-TAT assay: SeAP reporter under HIV-LTR versus RSV-LTR in transfected COS cells; type: cell-based; conditions: 1-50 µM, specific inhibition of SeAP under HIV-LTR minus RSV-LTR, 48 hours after addition, average of at least three tests, grades not defined
Protocol: The compounds of formula I were also tested for anti-HIV-TAT activity in an assay comprising the following steps: • (a) putting both the expression of the Secreted Alkaline Phosphatase (SeAP) gene and the viral transactivator TAT gene under the control of the HIV promoter LTR responsive to the action of the HIV transactivator TAT; • (b) transfecting cultured mammalian cells with plasmids which contain the gene constructs of (a) above and cause cellular production of the transactivating factor TAT and SeAP; • (c) adding the agent to be tested, here the compounds of formula I; and determining the amount of SeAP produced, by measuring SeAP enzymatic activity, whereby inhibition of SeAP production correlates with the anti-TAT inhibition activity.
In this assay, the inhibition of SeAP positively correlates with anti-TAT activity. The greater the ability of an agent to inhibit SeAP, the greater is its anti-TAT activity.
Specifically, with respect to the results reported below, the anti-HIV-TAT assay was run as follows:
At 24 hours post transfection 1, 10, 25 and 50 µM of a test compound of formula I was added to the culture media of COS cells transfected with two plasmids, one containing the reporter gene which codes for SeAP under control of HIV-LTR, and the other containing the HIV-TAT gene also under control of HIV-LTR. The alkaline phosphatase activity of the media was assayed 48 hours after addition of test compound with a colorimetric assay using p-nitrophenylphosphate as the substrate.
The anti-HIV-TAT activities of the test compounds were determined by measuring the amount of alkaline phosphatase in the supernatant media of cultures of cells in which SeAP gene expression was under the control of the HIV LTR promoter. The specific inhibitory activities of the test compounds were calculated according to the formula: 100[(1-A/B)-(1-C/D)] [formula] where A and B are the alkaline phosphatase activites produced by HIV-LTR/SeAP in the presence and absence, respectively, of test compound, and C and D are the alkaline phosphatase activities produced by RSV-LTR/SeAP in the presence and absence, respectively, of test compound. The concentrations tested ranged from 1-50 µM. The results provided are the average of at least three tests. The test compound was added 24 hours after cells were transfected with the plasmids when SeAP specific mRNA and protein were already present and the protein was very stable. […]

HIV-1 RT = target: T1, HIV-1 RT (Human immunodeficiency virus type 1 group M subtype B, UniProt P03366); experiment: HIV-1 RT inhibition with recombinant DNA-derived enzyme, poly(rA)·oligo(dT)10 template/primer, 3H-TTP incorporation; type: biochemical
T1 construct: made in house
Protocol: Compounds of the present invention were also examined for their ability to inhibit HIV-1 RT using recombinant DNA-derived enzyme (S.F.J. Le Grice and F. Gruninger-Leitch, European Journal of Biochemistry 187:307-314 (1990)) in […] volume assay mixtures. Mixtures contained 50mM Tris-HCl (pH 8.0), 25mM KCl, 4mM MgCl₂, 5mM dithiothreitol (DTT), 0.05% Triton X-100, […] ³H-TTP (2Ci/mmol), 1mg poly(rA)·oligo(dT)₁₀ (20:1) as template/primer, test compound at the desired concentration, and an appropriate quantity of HIV RT, usually 0.01 to 0.1mg. The assay mixtures were incubated at 37°C for 10 minutes and the reactions were stopped by the addition of 10% trichloroacetic acid (TCA). Yeast RNA ([…] per reaction) was added and the reaction products were precipitated at 4°C for 30 minutes. TCA-precipitated material was collected by filtration and the bound radioactivity determined by counting using a liquid scintillation counter. The concentration of compound required to inhibit the activity of HIV-RT by fifty percent (IC₅₀) was determined from a multiple dose-effect analysis program (J. Chou and I. C. Chou, Dose Effect Analysis with Microcomputers, Elsevier Sciences Publishers, Amsterdam 1987).

[1] = recombinant HIV-1 RT, 37°C, 10 minutes, read-out: IC₅₀

SMILES | IC50 (HIV-1 NIT strain) | Anti-HIV-TAT activity (HIV-TAT) | IC50 (HIV-1 RT; [1]) | IC50 (HIV-1 RT)
OC1CCN(C2=Nc3ccc(Cl)cc3C(c3ccc[nH]3)=NC2)C1 (racemic) [3-OH-1-pyrrolidinyl, rac-1-[7-chloro-5-(1H-pyrrol-2-yl)-3H-1,4-benzodiazepin-2-yl]-3-pyrrolidinol] | 1 to 5 µM | High | 6.4 µM | –
Clc1ccc2c(c1)C(c1ccc[nH]1)=NCC(N1CCNCC1)=N2 [1-piperazinyl, 7-chloro-2-(1-piperazinyl)-5-(1H-pyrrol-2-yl)-3H-1,4-benzodiazepine] | – | Low | 18 µM | –
Clc1ccc2c(c1)C(c1ccc[nH]1)=NCC(N1CCCCC1)=N2 [1-piperidinyl, 7-chloro-2-(1-piperidinyl)-5-(1H-pyrrol-2-yl)-3H-1,4-benzodiazepine] | 2 µM | Medium/High | 10.4 µM | –
Clc1ccc2c(c1)C(c1ccc[nH]1)=NCC(N1CCCC1)=N2 [1-pyrrolidinyl, 7-chloro-5-(1H-pyrrol-2-yl)-2-(1-pyrrolidinyl)-3H-1,4-benzodiazepine] | 0.8 to 5 µM | Medium/High | 10.2 µM | –
CCN(CC)C1=Nc2ccc(Cl)cc2C(c2ccc[nH]2)=NC1 [N(CH₂CH₃)₂, 7-chloro-N,N-diethyl-5-(1H-pyrrol-2-yl)-3H-1,4-benzodiazepin-2-amine] | – | Low/Medium | – | –
CN(C)C1=Nc2ccc(Cl)cc2C(c2ccc[nH]2)=NC1 [N(CH₃)₂, 7-chloro-N,N-dimethyl-5-(1H-pyrrol-2-yl)-3H-1,4-benzodiazepin-2-amine] | 1 to 3 µM | Medium/High | – | 7.3 µM
Clc1ccc2c(c1)C(c1ccc[nH]1)=NCC(NC1CC1)=N2 [NH(cyclopropyl), 7-chloro-N-cyclopropyl-5-(1H-pyrrol-2-yl)-3H-1,4-benzodiazepin-2-amine] | 0.8 µM | Medium | – | 5.4 µM
COC(CNC1=Nc2ccc(Cl)cc2C(c2ccc[nH]2)=NC1)OC [NHCH₂CH(OCH₃)₂, 7-chloro-N-(2,2-dimethoxyethyl)-5-(1H-pyrrol-2-yl)-3H-1,4-benzodiazepin-2-amine] | 1 to 5 µM | Medium/High | – | –
C=CCNC1=Nc2ccc(Cl)cc2C(c2ccc[nH]2)=NC1 [NHCH₂CH=CH₂, 7-chloro-N-(2-propenyl)-5-(1H-pyrrol-2-yl)-3H-1,4-benzodiazepin-2-amine] | – | Low | – | 4.2 µM
NCCNC1=Nc2ccc(Cl)cc2C(c2ccc[nH]2)=NC1 [NHCH₂CH₂NH₂, N-[7-chloro-5-(1H-pyrrol-2-yl)-3H-1,4-benzodiazepin-2-yl]-1,2-ethanediamine] | – | Medium | – | –
OCCNC1=Nc2ccc(Cl)cc2C(c2ccc[nH]2)=NC1 [NHCH₂CH₂OH, 7-chloro-N-(2-hydroxyethyl)-5-(1H-pyrrol-2-yl)-3H-1,4-benzodiazepin-2-amine] | 2 to 5 µM | Medium | – | 8.9 µM
C#CCNC1=Nc2ccc(Cl)cc2C(c2ccc[nH]2)=NC1 [NHCH₂C≡CH, 7-chloro-N-(2-propynyl)-5-(1H-pyrrol-2-yl)-3H-1,4-benzodiazepin-2-amine] | – | – | – | 2 µM
Clc1ccc2c(c1)C(c1ccc[nH]1)=NCC(NCc1ccccc1)=N2 [NHCH₂Ph, 7-chloro-N-(phenylmethyl)-5-(1H-pyrrol-2-yl)-3H-1,4-benzodiazepin-2-amine] | 3 µM | Low/Medium | – | 2.6 µM
NNC1=Nc2ccc(Cl)cc2C(c2ccc[nH]2)=NC1 [NHNH₂, 7-chloro-2-hydrazino-5-(1H-pyrrol-2-yl)-3H-1,4-benzodiazepine] | 1 µM | High | – | –
Clc1ccc2c(c1)C(c1ccc[nH]1)=NCC(Nc1ccccc1)=N2 [NHPh, 7-chloro-N-phenyl-5-(1H-pyrrol-2-yl)-3H-1,4-benzodiazepin-2-amine] | – | – | – | 15.8 µM
COC1=Nc2ccc(Cl)cc2C(c2ccc[nH]2)=NC1 [OCH₃, 7-chloro-2-methoxy-5-(1H-pyrrol-2-yl)-3H-1,4-benzodiazepine] | 1 µM | Medium | – | 1.5 µM
CSC1=Nc2ccc(Cl)cc2C(c2ccc[nH]2)=NC1 [SCH₃, 7-chloro-2-(methylthio)-5-(1H-pyrrol-2-yl)-3H-1,4-benzodiazepine] | 5 to 10 µM | Low/Medium | – | 1.6 µM
